ChEMBL document CHEMBL1201862, “PubChem BioAssay data set” (2004)
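Five compound concentrations were applied to cells in 96-well plates for 48 hours; endpoints were derived by simple linear interpolation of the resulting dose-response curve. GI50 marks 50% less growth.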 Active and inactive are the calls of the source. Cut-off read from the data, not from the text of the source: active = GI50 up to about 1.1 µM and inactive = higher.

How the values were obtained:
Experiment in all cases: growth of human tumour cells (NCI), 48 h
Malme-3M = test system: Malme-3M
786-0 = test system: 786-0
K562 = test system: K562
SK-OV-3 = test system: SK-OV-3
HL-60 = test system: HL-60
RXF 393 = test system: RXF 393
SK-MEL-5 = test system: SK-MEL-5
A549 = test system: A549
DMS-273 = test system: DMS-273
LOX IMVI = test system: LOX IMVI
SF-268 = test system: SF-268
MOLT-4 = test system: MOLT-4
SK-MEL-28 = test system: SK-MEL-28
A498 = test system: A498
UO-31 = test system: UO-31
HCT-116 = test system: HCT-116
SF-539 = test system: SF-539
NCI-H23 = test system: NCI-H23
CCRF-CEM = test system: CCRF-CEM

Measured: GI50

Cc1ccc(NC(=O)COC(=O)c2cccc3c(=O)c4ccccc4[nH]c23)cc1
inactive: Malme-3M 47 µM | 786-0 28.4 µM | K562 32.7 µM | SK-OV-3 25.5 µM | HL-60 38.3 µM | RXF 393 22.8 µM | SK-MEL-5 21.6 µM | A549 36.6 µM | DMS-273 23.6 µM | LOX IMVI 16.9 µM | SF-268 35.6 µM | MOLT-4 13.6 µM | SK-MEL-28 47.4 µM | A498 19.1 µM | UO-31 5.35 µM | HCT-116 14.6 µM | SF-539 22.9 µM | NCI-H23 17.8 µM

CNS(=O)(=O)NNS(=O)(=O)c1ccccc1
inactive: Malme-3M > 100 µM | 786-0 > 100 µM | K562 > 100 µM | SK-OV-3 > 100 µM | CCRF-CEM > 100 µM | HL-60 > 100 µM | RXF 393 > 100 µM | SK-MEL-5 > 100 µM | A549 > 100 µM | DMS-273 > 100 µM | LOX IMVI > 100 µM | SF-268 > 100 µM | MOLT-4 > 100 µM | SK-MEL-28 > 100 µM | A498 > 100 µM | UO-31 > 100 µM | HCT-116 > 100 µM | SF-539 > 100 µM | NCI-H23 > 100 µM

CC(=O)N1c2ccccc2N(C(C)=O)C1c1ccc(C2N(C(C)=O)c3ccccc3N2C(C)=O)[nH]1
inactive: Malme-3M > 100 µM | 786-0 > 100 µM | K562 > 100 µM | SK-OV-3 > 100 µM | CCRF-CEM > 100 µM | HL-60 > 100 µM | RXF 393 > 100 µM | SK-MEL-5 > 100 µM | A549 > 100 µM | DMS-273 > 100 µM | LOX IMVI > 100 µM | SF-268 > 100 µM | MOLT-4 > 100 µM | A498 > 100 µM | UO-31 > 100 µM | HCT-116 > 100 µM | SF-539 > 100 µM | NCI-H23 > 100 µM

C1C[N+]23CCC[N+]2(C1)CCC3 (stereo not given)
inactive: Malme-3M > 100 µM | 786-0 > 100 µM | K562 > 100 µM | SK-OV-3 > 100 µM | CCRF-CEM 31.6 µM | HL-60 31.1 µM | RXF 393 > 100 µM | SK-MEL-5 > 100 µM | A549 > 100 µM | DMS-273 > 100 µM | LOX IMVI > 100 µM | SF-268 > 100 µM | MOLT-4 > 100 µM | SK-MEL-28 > 100 µM | A498 > 100 µM | UO-31 99.8 µM | HCT-116 > 100 µM | SF-539 > 100 µM | NCI-H23 > 100 µM

O=C(/C=C/c1ccccc1)/C=C/c1ccccc1
inactive: Malme-3M 21.8 µM | 786-0 30.3 µM | K562 28.8 µM | SK-OV-3 43 µM | CCRF-CEM 36.9 µM | HL-60 23.2 µM | RXF 393 34.4 µM | SK-MEL-5 33.1 µM | A549 > 100 µM | DMS-273 38.7 µM | LOX IMVI 16.8 µM | SF-268 28.4 µM | MOLT-4 20.7 µM | SK-MEL-28 18.5 µM | A498 > 100 µM | UO-31 43.5 µM | HCT-116 17.3 µM | SF-539 19.5 µM | NCI-H23 29.7 µM

C[Si](C)(C)OC1CC(=O)OC1n1cc(F)c(=O)[nH]c1=O (stereo not given)
inactive: Malme-3M 19.2 µM | 786-0 21.4 µM | K562 26.4 µM | SK-OV-3 > 95.7 µM | CCRF-CEM 18.2 µM | HL-60 9.71 µM | RXF 393 > 43.6 µM | SK-MEL-5 > 100 µM | A549 4.38 µM | DMS-273 12.9 µM | LOX IMVI 7.94 µM | SF-268 50.7 µM | MOLT-4 17.8 µM | SK-MEL-28 15.8 µM | A498 > 100 µM | UO-31 13 µM | HCT-116 5.79 µM | SF-539 2.58 µM | NCI-H23 > 27.8 µM

COC(=O)/C(=N\NC(C)(C)C)C(C(=O)OC)C(=O)C(=O)Nc1cc(Cl)ccc1Cl (stereo not given)
inactive: Malme-3M > 100 µM | 786-0 > 100 µM | K562 > 100 µM | SK-OV-3 > 100 µM | CCRF-CEM > 100 µM | HL-60 > 100 µM | RXF 393 > 100 µM | SK-MEL-5 > 100 µM | A549 > 100 µM | DMS-273 > 100 µM | LOX IMVI > 100 µM | SF-268 > 100 µM | MOLT-4 > 100 µM | SK-MEL-28 > 100 µM | A498 > 100 µM | UO-31 > 100 µM | HCT-116 > 100 µM | SF-539 > 100 µM | NCI-H23 > 100 µM

CC1(C(=O)NCCN(CCNC(=O)C2(C)CC3(C)CC(C)(C2)C(=O)NC3=O)CCNC(=O)C2(C)CC3(C)CC(C)(C2)C(=O)NC3=O)CC2(C)CC(C)(C1)C(=O)NC2=O (stereo not given)
inactive: 786-0 > 100 µM | K562 > 100 µM | SK-OV-3 > 100 µM | CCRF-CEM > 100 µM | HL-60 > 100 µM | RXF 393 > 100 µM | A549 > 100 µM | DMS-273 > 100 µM | MOLT-4 > 100 µM | SK-MEL-28 > 100 µM | A498 > 100 µM | UO-31 > 100 µM | HCT-116 > 100 µM | SF-539 > 100 µM | NCI-H23 > 100 µM

N#CNc1nc(N)c(-c2ccc(Cl)cc2)c(C(=O)Nc2nccs2)n1
inactive: Malme-3M > 100 µM | 786-0 > 100 µM | K562 > 100 µM | HL-60 > 100 µM | RXF 393 > 100 µM | SK-MEL-5 > 100 µM | A549 > 100 µM | DMS-273 > 100 µM | LOX IMVI > 100 µM | SF-268 > 100 µM | MOLT-4 > 100 µM | SK-MEL-28 > 100 µM | A498 > 100 µM | UO-31 > 100 µM | HCT-116 > 100 µM | SF-539 > 100 µM | NCI-H23 > 100 µM

CCOC(=O)NC(=O)c1cn(CCOCCOC(=O)NCCCCCCNC(=O)OCCOCCn2cc(C(=O)NC(=O)OCC)c(=O)[nH]c2=O)c(=O)[nH]c1=O
inactive: Malme-3M > 100 µM | 786-0 > 100 µM | K562 > 100 µM | SK-OV-3 > 100 µM | HL-60 > 100 µM | RXF 393 > 100 µM | SK-MEL-5 > 100 µM | A549 > 100 µM | DMS-273 > 100 µM | LOX IMVI > 100 µM | SF-268 > 100 µM | SK-MEL-28 > 100 µM | A498 > 100 µM | UO-31 > 100 µM | HCT-116 > 100 µM | SF-539 > 100 µM | NCI-H23 > 100 µM

O=C(OCCOCCOC(=O)c1c[nH]cc1-c1ccccc1)c1c[nH]cc1-c1ccccc1
inactive: Malme-3M 18.9 µM | 786-0 25.9 µM | K562 28.9 µM | SK-OV-3 35.1 µM | CCRF-CEM 23 µM | HL-60 17.9 µM | RXF 393 15.4 µM | SK-MEL-5 16.8 µM | A549 22.2 µM | DMS-273 15.9 µM | LOX IMVI 16.4 µM | SF-268 15.5 µM | MOLT-4 17.9 µM | A498 19.3 µM | UO-31 14.1 µM | HCT-116 16 µM | SF-539 17.9 µM | NCI-H23 17.1 µM

O=C1CCC2(c3ccc(Cl)cc3)Nc3cc(Cl)ccc3N12 (stereo not given)
inactive: Malme-3M 10.7 µM | 786-0 10.2 µM | K562 2.31 µM | SK-OV-3 17.6 µM | CCRF-CEM 2.42 µM | HL-60 1.15 µM | RXF 393 11.9 µM | SK-MEL-5 12.4 µM | A549 11.5 µM | DMS-273 10.4 µM | LOX IMVI 12.1 µM | SF-268 12.4 µM | SK-MEL-28 12.4 µM | A498 12.1 µM | UO-31 15.6 µM | HCT-116 7.06 µM | SF-539 2.3 µM | NCI-H23 10.9 µM

O=C(O)CNS(=O)(=O)c1ccc(NC(=O)c2cccc([N+](=O)[O-])c2)cc1
inactive: Malme-3M > 100 µM | 786-0 > 100 µM | K562 > 100 µM | SK-OV-3 > 100 µM | CCRF-CEM > 100 µM | HL-60 > 100 µM | RXF 393 > 100 µM | SK-MEL-5 > 100 µM | A549 > 100 µM | DMS-273 > 100 µM | LOX IMVI > 100 µM | SF-268 > 100 µM | MOLT-4 > 100 µM | SK-MEL-28 > 100 µM | A498 > 100 µM | UO-31 > 100 µM | SF-539 > 100 µM | NCI-H23 > 100 µM

CCCCNC(=O)CCN(C(=O)O)S(=O)(=O)c1ccc(NC(=O)c2ccccc2)cc1
inactive: Malme-3M > 100 µM | 786-0 11.9 µM | K562 37 µM | SK-OV-3 > 100 µM | CCRF-CEM > 100 µM | HL-60 > 100 µM | SK-MEL-5 > 100 µM | A549 > 100 µM | DMS-273 30.4 µM | LOX IMVI 18.8 µM | SF-268 > 100 µM | MOLT-4 > 100 µM | SK-MEL-28 > 100 µM | A498 > 100 µM | UO-31 > 100 µM | HCT-116 > 100 µM | SF-539 > 100 µM | NCI-H23 > 100 µM

Cc1nc2c(s/c(=N\N)n2-c2ccccc2)c(=O)n1C
inactive: 786-0 > 100 µM | K562 > 100 µM | SK-OV-3 > 100 µM | CCRF-CEM > 100 µM | HL-60 > 100 µM | RXF 393 > 100 µM | SK-MEL-5 > 100 µM | A549 > 100 µM | DMS-273 > 100 µM | LOX IMVI > 100 µM | SF-268 > 100 µM | MOLT-4 > 100 µM | SK-MEL-28 > 100 µM | A498 > 100 µM | UO-31 > 100 µM | HCT-116 > 100 µM | SF-539 > 100 µM | NCI-H23 > 100 µM
